Assays:
[1] = cited from earlier work
[2] = λmax UV absorbance of free and encapsulated UV filter; format: physicochemical; details: free UV filter in ethanol
Description: λmax UV absorbance of free Uvinul A plus in ethanol was measured at 357 nm and λmax UV absorbance of Uvinul A plus encapsulated PLA-PEG-Mal particles in water was measured at 360 nm.

Compound	UV filter logP [1]	λmax UV absorbance of free UV filter [2]
CCCCC(CC)COC(=O)c1ccccc1O (centres unmarked) [Octisalate]	5.7	
CCCCC(CC)COc1ccc(-c2nc(-c3ccc(OC)cc3)nc(-c3ccc(OCC(CC)CCCC)cc3O)n2)c(O)c1 (centres unmarked) [Bemotrizinol, bis-ethylhexyloxyphenol methoxyphenyl triazine]	10.4	
COc1cc(O)c(C(=O)c2ccccc2)cc1S(=O)(=O)O [Sulisobenzone]	2.2	
CCCCCCOC(=O)c1ccccc1C(=O)c1ccc(N(CC)CC)cc1O [Uvinul A Plus, diethylamino hydroxybenzoyl hexyl benzoate]	6.5	357 nm
CCCCC(CC)COC(=O)C(C#N)=C(c1ccccc1)c1ccccc1 (centres unmarked) [Octocrylene]	7.1	304 nm
CC1CCC(C(C)C)C(OC(=O)c2ccccc2N)C1 (centres unmarked) [Meradimate]	5.1	
